# According to PubChem BioAssay (NCI):
#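 GI50 = concentration required for 50% inhibition of growth. At the TGI there is no net growth.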
# How the values were obtained:
# Test in all cases: growth of human tumour cells (NCI), 384-well format
# [1] = tested on: SR leukemia
# [2] = tested on: SK-MEL-28 melanoma
# [3] = tested on: SNB-75 CNS
# [4] = tested on: MCF7 breast
# [5] = tested on: MOLT-4 leukemia
# [6] = tested on: MALME-3M melanoma
# [7] = tested on: MDA-MB-435 melanoma
# [8] = tested on: PC-3 prostate
# [9] = tested on: UACC-62 melanoma
# [10] = tested on: OVCAR-4 ovarian
# [11] = tested on: COLO 205 colon
# [12] = tested on: NCI/ADR-RES ovarian
# [13] = tested on: SK-OV-3 ovarian
# [14] = tested on: SN12C renal
# [15] = tested on: DU-145 prostate
# [16] = tested on: MDA-MB-468 breast
# [17] = tested on: CCRF-CEM leukemia
# [18] = tested on: 786-0 renal
# [19] = tested on: HCC-2998 colon
# [20] = tested on: HCT-116 colon
# [21] = tested on: M14 melanoma
# [22] = tested on: HT29 colon
# [23] = tested on: UACC-257 melanoma
# [24] = tested on: NCI-H522 lung
# [25] = tested on: OVCAR-5 ovarian
# [26] = tested on: OVCAR-3 ovarian
# [27] = tested on: A498 renal
# [28] = tested on: U251 glioblastoma
# [29] = tested on: SF-295 CNS
# [30] = tested on: A549 NSCLC
# [31] = tested on: IGROV1 ovarian
# [32] = tested on: K-562 leukemia
# [33] = tested on: HS 578T breast
# [34] = tested on: NCI-H23 lung
# [35] = tested on: TK-10 renal
# [36] = tested on: SNB-19 CNS
# [37] = tested on: HCT-15 colon
# [38] = tested on: LOX IMVI melanoma
# [39] = tested on: MDA-MB-231 breast
# [40] = tested on: EKVX NSCLC
# [41] = tested on: RPMI-8226 leukemia
# [42] = tested on: SF-268 CNS
# [43] = tested on: OVCAR-8 ovarian
# [44] = tested on: SK-MEL-5 melanoma
# [45] = tested on: HL-60(TB) leukemia
# [46] = tested on: SW-620 colon
# [47] = tested on: NCI-H322M lung
smiles,measurement,setting,value
N#Cc1c(N)nc(N)nc1N[C@H](c1nc2c(F)ccc(Cl)c2c(=O)n1-c1cccnc1)C1CC1,GI50,[1],10.5 µM
same,TGI,[1],22.5 µM
same,GI50,[2],3.88 µM
same,TGI,[2],> 100 µM
same,GI50,[3],670 nM
same,TGI,[3],5.1 µM
same,GI50,[4],2730 nM
same,TGI,[4],> 100 µM
same,GI50,[5],1540 nM
same,TGI,[5],3.94 µM
same,GI50,[6],> 39.9 µM
same,TGI,[6],> 100 µM
same,GI50,[7],35.4 µM
same,TGI,[7],> 100 µM
same,GI50,[8],1080 nM
same,TGI,[8],14 µM
same,GI50,[9],3.23 µM
same,TGI,[9],58.9 µM
same,GI50,[10],10.8 µM
same,TGI,[10],52.7 µM
same,GI50,[11],19.8 µM
same,TGI,[11],> 91.6 µM
same,GI50,[12],34.2 µM
same,TGI,[12],> 100 µM
same,GI50,[13],4.36 µM
same,TGI,[13],37.5 µM
same,GI50,[14],4.29 µM
same,TGI,[14],> 100 µM
same,GI50,[15],13.4 µM
same,TGI,[15],> 85.1 µM
same,GI50,[16],912 nM
same,TGI,[16],5.94 µM
same,GI50,[17],1420 nM
same,TGI,[17],10.6 µM
same,GI50,[18],3.51 µM
same,TGI,[18],24.4 µM
same,GI50,[19],11 µM
same,TGI,[19],24.5 µM
same,GI50,[20],16.1 µM
same,TGI,[20],35.9 µM
same,GI50,[21],79 µM
same,TGI,[21],> 100 µM
same,GI50,[22],13.4 µM
same,TGI,[22],42 µM
same,GI50,[23],19.5 µM
same,TGI,[23],> 100 µM
same,GI50,[24],16.9 µM
same,TGI,[24],48.5 µM
same,GI50,[25],9.12 µM
same,TGI,[25],43.1 µM
same,GI50,[26],728 nM
same,TGI,[26],6.73 µM
same,GI50,[27],445 nM
same,TGI,[27],3.11 µM
same,GI50,[28],18.3 µM
same,TGI,[28],61.9 µM
same,GI50,[29],2370 nM
same,TGI,[29],18.4 µM
same,GI50,[30],9.47 µM
same,TGI,[30],30.1 µM
same,GI50,[31],1640 nM
same,TGI,[31],4.18 µM
same,GI50,[32],17.8 µM
same,TGI,[32],38.1 µM
same,GI50,[33],1790 nM
same,TGI,[33],15.4 µM
same,GI50,[34],15.3 µM
same,TGI,[34],54.8 µM
same,GI50,[35],4.55 µM
same,TGI,[35],29.1 µM
same,GI50,[36],15 µM
same,TGI,[36],31.8 µM
same,GI50,[37],16.1 µM
same,TGI,[37],44.9 µM
same,GI50,[38],5.13 µM
same,TGI,[38],18.6 µM
same,GI50,[39],9.59 µM
same,TGI,[39],34.2 µM
same,GI50,[40],2630 nM
same,TGI,[40],17.6 µM
same,GI50,[41],3.36 µM
same,TGI,[41],10.3 µM
same,GI50,[42],13.9 µM
same,TGI,[42],51.1 µM
same,GI50,[43],13.4 µM
same,TGI,[43],32.7 µM
same,GI50,[44],12.6 µM
same,TGI,[44],34.3 µM
same,GI50,[45],1130 nM
same,TGI,[45],7.85 µM
same,GI50,[46],11.9 µM
same,TGI,[46],36.3 µM
same,GI50,[47],14.9 µM
same,TGI,[47],> 80.1 µM
